Where two headings read alike, the source gives them in different places.
Tests used:
[1] = target: xanthine oxidase (Bos taurus, UniProt P80457); test: Xanthine oxidase inhibition assay (superoxide-dependent cytochrome c reduction); assay type: biochemical; conditions: for % Inhibition (of initial rate of reaction) / inhibition at 1 µM / inhibition at 5 µM / inhibition at 10 µM / inhibition at 50 µM: n=3; for inhibition at 1 µM / inhibition at 5 µM / inhibition at 10 µM / inhibition at 50 µM: read-out: % Inhibition (of initial rate of reaction); for xanthine oxidase inhibition, result in words: statement under Table 4
Chain of xanthine oxidase (P80457 whole entry): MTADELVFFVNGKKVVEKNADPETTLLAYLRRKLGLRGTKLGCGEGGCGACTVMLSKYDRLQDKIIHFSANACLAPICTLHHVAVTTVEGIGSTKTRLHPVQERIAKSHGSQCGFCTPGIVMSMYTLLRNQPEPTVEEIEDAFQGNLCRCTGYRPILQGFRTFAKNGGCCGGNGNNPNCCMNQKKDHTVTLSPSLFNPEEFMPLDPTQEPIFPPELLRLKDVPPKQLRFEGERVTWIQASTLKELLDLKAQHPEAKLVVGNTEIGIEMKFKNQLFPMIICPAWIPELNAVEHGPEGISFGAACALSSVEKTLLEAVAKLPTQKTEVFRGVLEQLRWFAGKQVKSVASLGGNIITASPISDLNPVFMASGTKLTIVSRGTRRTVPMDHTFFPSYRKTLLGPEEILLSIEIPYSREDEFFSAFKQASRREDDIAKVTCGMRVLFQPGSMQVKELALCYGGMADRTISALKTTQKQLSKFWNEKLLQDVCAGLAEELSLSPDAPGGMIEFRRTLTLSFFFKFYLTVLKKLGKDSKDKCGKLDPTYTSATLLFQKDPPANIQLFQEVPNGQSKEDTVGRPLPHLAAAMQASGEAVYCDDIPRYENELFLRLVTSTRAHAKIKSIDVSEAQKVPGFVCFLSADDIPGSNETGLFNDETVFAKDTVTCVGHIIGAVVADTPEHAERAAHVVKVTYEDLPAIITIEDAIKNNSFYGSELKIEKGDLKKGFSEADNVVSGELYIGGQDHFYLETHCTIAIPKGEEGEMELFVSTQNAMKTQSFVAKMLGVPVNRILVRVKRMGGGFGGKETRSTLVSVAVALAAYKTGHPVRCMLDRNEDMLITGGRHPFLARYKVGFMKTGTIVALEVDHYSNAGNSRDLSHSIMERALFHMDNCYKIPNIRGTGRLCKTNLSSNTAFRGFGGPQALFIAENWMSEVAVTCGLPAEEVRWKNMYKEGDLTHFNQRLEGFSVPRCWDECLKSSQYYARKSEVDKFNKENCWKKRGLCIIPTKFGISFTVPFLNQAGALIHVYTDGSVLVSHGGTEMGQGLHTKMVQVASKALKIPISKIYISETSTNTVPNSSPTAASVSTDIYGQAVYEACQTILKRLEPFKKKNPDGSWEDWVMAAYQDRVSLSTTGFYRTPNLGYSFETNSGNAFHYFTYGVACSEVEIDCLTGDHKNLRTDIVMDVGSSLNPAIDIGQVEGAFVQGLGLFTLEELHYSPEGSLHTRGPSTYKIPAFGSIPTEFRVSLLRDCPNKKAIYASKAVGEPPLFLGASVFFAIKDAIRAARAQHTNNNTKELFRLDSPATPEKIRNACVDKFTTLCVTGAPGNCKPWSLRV
Experimental: Superoxide produced from the oxidation of varying concentrations of xanthine to uric acid in the presence of xanthine oxidase (5×10^-3 U/ml) was quantified by the superoxide dismutase inhibitable reduction of […] (10 μM) at 550 nm with respect to time. Enzyme inhibition was determined at varying concentrations of the inhibitors.

[2] = target: bovine xanthine oxidase (Bos taurus, UniProt P80457); test: Further xanthine oxidase inhibition studies, steady-state kinetic analysis (uric acid formation); assay type: biochemical; conditions: 37° C.; for manner of xanthine oxidase inhibition: pH 7.4, inhibitors 1-3 μM
Chain of bovine xanthine oxidase (P80457 whole entry): as above
Experimental: The study was conducted at 37° C. using 30 mU/ml bovine xanthine oxidase in 50 mM phosphate buffer (ph 7.4). The initial rate of uric acid formation was determined spectrophotometrically (292 nm) in the presence of varying concentrations of xanthine (5, 7.5, 10, 15 and 20 μM) and the inhibitors (1-3 μM). Enzyme-inhibitor dissociation constant (Ki) values were calculated from the apparent 1/Vmax values obtained at different inhibitor concentrations.

[3] = Hydroxyl radical scavenging activity (inhibition of NPG hydroxylation by peroxynitrous acid); conditions: n=3
Experimental: Antioxidant activity is based on the selective hydroxylation of NPG (N,N'-[5-nitro-1,3-phenylene] bisglutaramide) by hydroxyl radicals produced from peroxynitrous acid (1 mM) by the addition of peroxynitrite stabilised in base to a mixture of NPG (1 mM) and varying concentrations of the anti-ischaemic agents prepared in 0.2M phosphate buffer, pH 7. The solutions were analysed by RP-HPLC. NPS (50 mM), an analogue of NPG, was used as an internal standard. Inhibition of hydroxylation of NPG is a direct measure of the hydroxyl radical scavenging ability of the inhibitors.
Values are expressed as percentage scavenging of the hydroxyl radicals % standard deviation, n=3.

[4] = system: rat hearts; test: Heart ischaemia reperfusion studies (Langendorff perfused rat hearts); set-up: species or system Wistar rats; conditions: 150 μM in reperfusion perfusate, after 60 min aerobic perfusion following 50 min ischaemia, ±sem
Experimental: Adult male Wistar rats (240-320 g) were anaesthetised intraperitoneally (i.p.) with sodium pentobarbital (Sagatal; 60 mg/kg and heparinised (100 IU/100 g body weight) through the femoral vein, and the heart excised in cold Krebs buffer. By Langendorff technique, the hearts were perfused at a constant pressure (100 mm H2 O) with Krebs bicarbonate buffer. The study was initiated by 30 min aerobic perfusion followed by a 50 min period of global ischaemia, achieved by clamping perfusion flow into the aorta, and finally by reperfusion over 60 min. A ballon was inserted into the left ventricle and inflated to a left ventricular end diastolic pressure (LVEDP) of 4 mm Hg and used to measure left ventricular developed pressure (LVDP) and heart rate (HR). In addition, the coronary effluent was collected over timed intervals as a measure of coronary flow (CF). Assessment of function was made 20 min after the start of the study and at 10 min intervals thereafter. SL301 treated hearts followed a similar protocol as above except that the drug was present in the reperfusion perfusate following the ischaemic insult.

[5] = Table 1, [Xanthine] = 50 μM, inhibitor 1 μM
[6] = Table 1, [Xanthine] = 50 μM, inhibitor 5 μM
[7] = Table 1, [Xanthine] = 50 μM, inhibitor 10 μM
[8] = Table 1, [Xanthine] = 50 μM, inhibitor 50 μM
[9] = Table 2, [Xanthine] = 25 μM, inhibitor 5 μM
[10] = Table 2, [Xanthine] = 25 μM, inhibitor 10 μM
[11] = Table 2, [Xanthine] = 25 μM, inhibitor 50 μM
[12] = Table 3, [Xanthine] = 25 μM, inhibitor 1 μM
[13] = Table 3, [Xanthine] = 25 μM, inhibitor 5 μM
[14] = Table 3, [Xanthine] = 25 μM, inhibitor 10 μM
[15] = Table 3, [Xanthine] = 25 μM, inhibitor 50 μM
[16] = Table 4, [Xanthine] = 8 μM, inhibitor 1 μM
[17] = Table 4, [Xanthine] = 8 μM, inhibitor 5 μM
[18] = Table 4, [Xanthine] = 8 μM, inhibitor 10 μM
[19] = Table 4, [Xanthine] = 8 μM, inhibitor 50 μM
[20] = Table 2, [Xanthine] = 25 μM, inhibitor 1 μM

| SMILES | inhibition at 5 µM [1, 6] | inhibition at 10 µM [1, 7] | inhibition at 50 µM [1, 8] | inhibition at 1 µM [1, 20] | inhibition at 5 µM [1, 9] | inhibition at 10 µM [1, 10] | inhibition at 50 µM [1, 11] | inhibition at 5 µM [1, 13] | inhibition at 10 µM [1, 14] | inhibition at 50 µM [1, 15] | inhibition at 1 µM [1, 16] | inhibition at 5 µM [1, 17] | inhibition at 10 µM [1, 18] | inhibition at 50 µM [1, 19] | xanthine oxidase inhibition, result in words [1] | % Activity (percentage scavenging of the hydroxyl radical) ([3]; Antioxidant Ratio 0.1) | % Activity (percentage scavenging of the hydroxyl radical) ([3]; Antioxidant Ratio 0.5) | % Activity (percentage scavenging of the hydroxyl radical) ([3]; Antioxidant Ratio 1.0) | % Activity (percentage scavenging of the hydroxyl radical) ([3]; Antioxidant Ratio 5.0) | further results |
| --- | --- | --- | --- | --- | --- | --- | --- | --- | --- | --- | --- | --- | --- | --- | --- | --- | --- | --- | --- | --- |
| Oc1ncnc2[nH]ncc12 [Allopurinol, allopurinol, reference compound] | – | – | – | – | – | – | – | – | – | – | – | – | – | – | – | – | – | – | – | % Inhibition (of initial rate of reaction) [1, 5]: 13.83%; % Inhibition (of initial rate of reaction) [1, 6]: 22.90%; % Inhibition (of initial rate of reaction) [1, 7]: 20.63%; % Inhibition (of initial rate of reaction) [1, 8]: 59.18%; % Inhibition (of initial rate of reaction) [1, 9]: 2.41%; % Inhibition (of initial rate of reaction) [1, 10]: 14.09%; % Inhibition (of initial rate of reaction) [1, 11]: 58.76%; % Inhibition (of initial rate of reaction) [1, 12]: 23.88%; % Inhibition (of initial rate of reaction) [1, 13]: 64.57%; % Inhibition (of initial rate of reaction) [1, 14]: 44.88%; % Inhibition (of initial rate of reaction) [1, 15]: 68.50%; % Inhibition (of initial rate of reaction) [1, 16]: 17.40%; % Inhibition (of initial rate of reaction) [1, 17]: 29.20%; % Inhibition (of initial rate of reaction) [1, 18]: 49.85%; % Inhibition (of initial rate of reaction) [1, 19]: 73.45%; manner of xanthine oxidase inhibition [2]: competitive |
| O=c1[nH]c(=O)c2c[nH]nc2[nH]1 [Oxypurinol, oxypurinol, reference compound] | 24.8% | 32.3% | 67.4% | 2.26% | 37.3% | 42.4% | 62.4% | 46.1% | 30.8% | 43.6% | 6.06% | 33.3% | 45.5% | 48.5% | – | – | – | – | – | inhibition at 1 µM [1, 5]: 2.26%; inhibition at 1 µM [1, 12]: 15.4% |
| O=c1c2cn[nH]c2ncn1O [SL100, 1, hydroxy-6-oxypyrazolo-[3,4-d]-pyrimidine] | – | – | – | – | – | – | – | – | – | – | – | – | – | – | inactive | 6.56% | 37.70% | 65.58% | 100% | – |
| O=c1[nH]c2[nH]ncc2c(=O)n1O [SL101, 2,6-dioxo-1-hydroxypyrazolo-[3,4-d]-pyrimidine] | – | – | – | – | – | – | – | – | – | – | – | – | – | – | inactive | 8.25% | 20.96% | 39.71% | 72.79% | – |
| O=c1c2[nH]cnc2ncn1O [SL200, 1-hydroxy-6-oxopurine] | – | – | – | – | – | – | – | – | – | – | – | – | – | – | inactive | 25.13% | 48.49% | 69.54% | 90.09% | – |
| O=c1[nH]c2[nH]cnc2c(=O)n1O [SL201] | – | – | – | – | – | – | – | – | – | – | – | – | – | – | inactive | – | – | – | – | – |
| O=c1c2nccnc2ncn1O [SL300, 1-hydroxy-6-oxypyrazino-[2,3-d]-pterine] | 1.84% | 14.2% | 16% | 13.8% | 9.09% | 16.1% | 34.7% | 5.55% | 11.1% | 27.8% | 6.15% | 12.6% | 19.1% | 38.5% | – | – | 6.04% | 26.58% | 68.58% | – |
| O=c1[nH]c2nccnc2c(=O)n1O [SL301] | 31.8% | 39.6% | 63.2% | 37.1% | 51% | 58% | 72% | 41.7% | 58.3% | 77.8% | 22.3% | 41.8% | 49.8% | 70.9% | – | 9.80% | 18.00% | 45.90% | 70.21% | inhibition at 1 µM [1, 5]: 29.1%; inhibition at 1 µM [1, 12]: 25%; Ki ([2]; 30 mU/ml bovine xanthine oxidase, 50 mM phosphate buffer pH 7.4, xanthine 5-20 μM): 700 nM; manner of xanthine oxidase inhibition [2]: competitive; % recovery of pre-ischaemic LVDP (left ventricular developed pressure) ([4]; control 41 ± 13): 76 ± 9%; % recovery of pre-ischaemic HR (heart rate) ([4]; control 49 ± 13): 90 ± 6%; % recovery of pre-ischaemic CF (coronary flow) ([4]; control 83 ± 6): 72 ± 4% |

— patent US6004966A, “Use of xanthine oxidase inhibitors as anti-ischaemic agents” (BTG International Limited, priority 1994, dated 1999)
